According to ChEMBL document CHEMBL1201862, “PubChem BioAssay data set” (2004):
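All cell lines were grown in 96-well plates and treated with compound for 48 hours. GI50 = concentration required for 50% inhibition of growth.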 Calls of active or inactive are those of the source. No stated cut-off is given here; in the data, active = GI50 up to about 1.1 µM and inactive = higher.

Assays:
Assay in all cases: NCI-60 cell line screen, 48 h
SNB-78 = system: SNB-78
DMS-114 = system: DMS-114
LXFL 529 = system: LXFL 529
DMS-273 = system: DMS-273
DLD-1 = system: DLD-1
HOP-18 = system: HOP-18
RXF 631 = system: RXF 631
M19-MEL = system: M19-MEL
MDA-N = system: MDA-N

Row | SMILES | GI50 (SNB-78) | GI50 (DMS-114) | GI50 (LXFL 529) | GI50 (DMS-273) | GI50 (DLD-1) | GI50 (HOP-18) | GI50 (RXF 631) | GI50 (M19-MEL) | GI50 (MDA-N)
1 | FC(F)(F)c1nc(-c2ccccc2)oc1Sc1nnc(Sc2oc(-c3ccccc3)nc2C(F)(F)F)s1 | 34.1 µM (inactive) | 6.15 µM (inactive) | 27.8 µM (inactive) | 46.8 µM (inactive) | 36.4 µM (inactive) | > 100 µM (inactive) | 36.9 µM (inactive) | 23.2 µM (inactive) | –
2 | Cc1nsc2cc(Cl)n(C)c(=O)c12 | > 100 µM (inactive) | > 100 µM (inactive) | > 100 µM (inactive) | > 100 µM (inactive) | > 100 µM (inactive) | – | > 100 µM (inactive) | > 100 µM (inactive) | –
3 | CC12CCC(=O)N1c1cc([N+](=O)[O-])ccc1N2 (configuration not stated) | > 100 µM (inactive) | > 100 µM (inactive) | > 100 µM (inactive) | > 100 µM (inactive) | > 100 µM (inactive) | > 100 µM (inactive) | > 100 µM (inactive) | > 100 µM (inactive) | –
4 | O=C(OC1CC(n2cc(F)c(=O)[nH]c2=O)OC1CSC(=O)c1ccccc1)c1ccccc1 (configuration not stated) | 32.1 µM (inactive) | 37.3 µM (inactive) | 90.8 µM (inactive) | – | 33.8 µM (inactive) | 33.3 µM (inactive) | 15.1 µM (inactive) | 26.5 µM (inactive) | –
5 | COC12CCC(C(C(=O)c3ccccc3)=C1C(=O)c1ccccc1)C(O)C2 (configuration not stated) | > 100 µM (inactive) | > 100 µM (inactive) | > 100 µM (inactive) | > 100 µM (inactive) | > 100 µM (inactive) | – | > 100 µM (inactive) | > 100 µM (inactive) | –
6 | CC(C)C(/N=C1\CC2CCC1(C(=O)Nc1ccccc1O)C2(C)C)c1ccccc1 (configuration not stated) | > 10 µM (inactive) | > 10 µM (inactive) | > 10 µM (inactive) | > 10 µM (inactive) | > 10 µM (inactive) | > 10 µM (inactive) | > 10 µM (inactive) | > 10 µM (inactive) | –
7 | CCOc1ccc(NC(=O)CC2C(=O)Nc3ccccc3S2(=O)=O)cc1 (configuration not stated) | 90.4 µM (inactive) | > 100 µM (inactive) | > 100 µM (inactive) | – | > 100 µM (inactive) | > 100 µM (inactive) | > 100 µM (inactive) | > 100 µM (inactive) | –
8 | COC1=CC(=O)C2C(C1=O)[C@@H]1c3ccccc3C[C@H]21 (some centres not stated) | > 100 µM (inactive) | – | – | > 100 µM (inactive) | > 100 µM (inactive) | – | > 100 µM (inactive) | > 100 µM (inactive) | –
9 | Cn1cnc([N+](=O)[O-])c1Sc1nc(N)nc2c1ncn2C1OC(CO)C(O)C1O (configuration not stated) | 7.26 µM (inactive) | 10.7 µM (inactive) | 45.8 µM (inactive) | 4.17 µM (inactive) | 7.67 µM (inactive) | 44.7 µM (inactive) | – | 35.2 µM (inactive) | 2.73 µM (inactive)
10 | CN(C)C(=S)/N=c1\ssc(=S)n1Cc1cccnc1 | > 100 µM (inactive) | 0.783 µM (active) | 6.15 µM (inactive) | 1.09 µM (active) | 3.95 µM (inactive) | > 100 µM (inactive) | 4.39 µM (inactive) | 1.51 µM (inactive) | 0.324 µM (active)
11 | Nc1ncnc(NC2C=C(CO)C(O)C2O)c1[N+](=O)[O-] (configuration not stated) | > 100 µM (inactive) | > 100 µM (inactive) | > 100 µM (inactive) | > 100 µM (inactive) | > 100 µM (inactive) | > 100 µM (inactive) | > 100 µM (inactive) | > 100 µM (inactive) | –
